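Each compound was tested at five concentrations against cells in 96-well plates for 48 hours. GI50 is the concentration that inhibits growth by half. TGI is the concentration that stops growth completely.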
Assays:
Assay in all cases: NCI anticancer screen, dose series, 48 h
[1] = test system: M14 melanoma
[2] = test system: NCI-H23 lung
[3] = test system: HT29 colon
[4] = test system: SW-620 colon
[5] = test system: CAKI-1 renal
[6] = test system: MCF7 breast
[7] = test system: HL-60(TB) leukemia
[8] = test system: OVCAR-5 ovarian
[9] = test system: TK-10 renal
[10] = test system: NCI-H226 lung
[11] = test system: NCI/ADR-RES ovarian
[12] = test system: OVCAR-3 ovarian
[13] = test system: PC-3 prostate
[14] = test system: HOP-62 NSCLC
[15] = test system: MDA-MB-231 breast
[16] = test system: EKVX NSCLC
[17] = test system: A498 renal
[18] = test system: MDA-MB-435
[19] = test system: SNB-19 CNS
[20] = test system: SK-MEL-5 melanoma
[21] = test system: SK-MEL-2 melanoma
[22] = test system: HCT-15 colon
[23] = test system: SF-539 CNS
[24] = test system: 786-0 renal
[25] = test system: SNB-75 CNS
[26] = test system: UACC-62 melanoma
[27] = test system: NCI-H460 lung
[28] = test system: RXF 393 renal
[29] = test system: HOP-92 NSCLC
[30] = test system: RPMI-8226 leukemia
[31] = test system: UACC-257 melanoma
[32] = test system: LOX IMVI melanoma
[33] = test system: K-562 leukemia
[34] = test system: IGROV1 ovarian
[35] = test system: KM12 colon
[36] = test system: A549 NSCLC
[37] = test system: COLO 205 colon
[38] = test system: SN12C renal
[39] = test system: UO-31 renal
[40] = test system: BT-549 breast
[41] = test system: SF-268 CNS
[42] = test system: U251 CNS
[43] = test system: ACHN renal
[44] = test system: SR leukemia
[45] = test system: NCI-H522 lung
[46] = test system: HS 578T breast
[47] = test system: SK-MEL-28 melanoma
[48] = test system: OVCAR-4 ovarian
[49] = test system: DU-145 prostate
[50] = test system: HCC-2998 colon
[51] = test system: HCT-116 colon
[52] = test system: MALME-3M melanoma
[53] = test system: OVCAR-8 ovarian
[54] = test system: SF-295 CNS
[55] = test system: SK-OV-3 ovarian

SMILES: COc1ccc(NC2=C(Cl)C(=O)C(C)=C(C)C2=O)cc1
- GI50 [1]: 12 µM
- TGI [1]: 26.6 µM
- GI50 [2]: 14.8 µM
- TGI [2]: 55 µM
- GI50 [3]: 23.5 µM
- TGI [3]: 54.1 µM
- GI50 [4]: 3.92 µM
- TGI [4]: 18.9 µM
- GI50 [5]: 10.4 µM
- TGI [5]: 22.2 µM
- GI50 [6]: 2.35 µM
- TGI [6]: 6.05 µM
- GI50 [7]: 2.18 µM
- TGI [7]: 5.54 µM
- GI50 [8]: 16.8 µM
- TGI [8]: 35.7 µM
- GI50 [9]: 28.6 µM
- TGI [9]: 52.1 µM
- GI50 [10]: 12.3 µM
- TGI [10]: 27.6 µM
- GI50 [11]: 2.89 µM
- TGI [11]: 9.87 µM
- GI50 [12]: 2.12 µM
- TGI [12]: 4.53 µM
- GI50 [13]: 4.51 µM
- TGI [13]: 20.6 µM
- GI50 [14]: 12.2 µM
- TGI [14]: 25.4 µM
- GI50 [15]: 1.99 µM
- TGI [15]: 4.49 µM
- GI50 [16]: 1.79 µM
- TGI [16]: 3.43 µM
- GI50 [17]: 18 µM
- TGI [17]: 47.2 µM
- GI50 [18]: 2.74 µM
- TGI [18]: 7.13 µM
- GI50 [19]: 10.3 µM
- TGI [19]: 22.1 µM
- GI50 [20]: 6.45 µM
- TGI [20]: 19.1 µM
- GI50 [21]: 11 µM
- TGI [21]: 24.1 µM
- GI50 [22]: 13.7 µM
- TGI [22]: 27.9 µM
- GI50 [23]: 15.5 µM
- TGI [23]: 29.4 µM
- GI50 [24]: 18.7 µM
- TGI [24]: 34 µM
- GI50 [25]: 4.49 µM
- TGI [25]: 19.1 µM
- GI50 [26]: 10.6 µM
- TGI [26]: 22.7 µM
- GI50 [27]: 25.5 µM
- TGI [27]: > 100 µM
- GI50 [28]: 9.13 µM
- TGI [28]: 21.4 µM
- GI50 [29]: 1.4 µM
- TGI [29]: 2.84 µM
- GI50 [30]: 2.23 µM
- TGI [30]: 5.69 µM
- GI50 [31]: 1.86 µM
- TGI [31]: 3.96 µM
- GI50 [32]: 1.79 µM
- TGI [32]: 3.59 µM
- GI50 [33]: 2.58 µM
- TGI [33]: 9.59 µM
- GI50 [34]: 1.78 µM
- TGI [34]: 3.35 µM
- GI50 [35]: 3.75 µM
- TGI [35]: 44.3 µM
- GI50 [36]: 21.7 µM
- TGI [36]: > 100 µM
- GI50 [37]: 19.2 µM
- TGI [37]: 38.8 µM
- GI50 [38]: 12.7 µM
- TGI [38]: 26.3 µM
- GI50 [39]: 11.1 µM
- TGI [39]: 23.1 µM
- GI50 [40]: 13.3 µM
- TGI [40]: 26.6 µM
- GI50 [41]: 11.4 µM
- TGI [41]: 52.2 µM
- GI50 [42]: 7.5 µM
- TGI [42]: 21 µM
- GI50 [43]: 3.94 µM
- TGI [43]: 13.6 µM
- GI50 [44]: 2.37 µM
- TGI [44]: 8.06 µM
- GI50 [45]: 13.3 µM
- TGI [45]: 29.5 µM
- GI50 [46]: 17.4 µM
- TGI [46]: 72.4 µM
- GI50 [47]: 14.9 µM
- TGI [47]: 28.8 µM
- GI50 [48]: 1.71 µM
- TGI [48]: 3.1 µM
- GI50 [49]: 25.2 µM
- TGI [49]: 69.8 µM
- GI50 [50]: 16.8 µM
- TGI [50]: 31.7 µM
- GI50 [51]: 2 µM
- TGI [51]: 4.37 µM
- GI50 [52]: 14 µM
- TGI [52]: 28.2 µM
- GI50 [53]: 1.84 µM
- TGI [53]: 3.84 µM
- GI50 [54]: 10.3 µM
- TGI [54]: 23.7 µM
- GI50 [55]: 10.8 µM
- TGI [55]: 22.7 µM

Reference: PubChem BioAssay (NCI)
